According to patent publication US20250051363A1, “Substituted Pyrazolopyridines” (Neuro3 Therapeutics, Inc., priority 2023, published 2025):

Biological target: LRRK2 wild-type (Homo sapiens (Human), UniProt Q5S007)
Assay: LanthaScreen LRRK2 Biochemical Activity Assay
Conditions: human recombinant LRRK2 (amino acids 970-2527) wild-type, ATP 57 μM, TR-FRET; read-out: IC50 (nM), inhibition of LRRK2 wild-type kinase activity
Protocol: The ability of a compound of Formula (I) to inhibit LRRK2 kinase activity is measured using a LanthaScreen™ kinase activity assay. In general, in a LanthaScreen™ kinase activity assay, kinase, fluorescein-labeled substrate, and ATP are allowed to react. Then EDTA (to stop the reaction) and terbium-labeled antibody (to detect phosphorylated product) are added. In a LanthaScreen™ kinase reaction, the antibody associates with the phosphorylated fluorescein labeled substrate resulting in an increased TR-FRET value. The TR-FRET value is a dimensionless number that is calculated as the ratio of the acceptor (fluorescein) signal to the donor (terbium) signal. The amount of antibody that is bound to the tracer is directly proportional to the amount of phosphorylated substrate present, and in this manner, kinase activity can be detected and measured by an increase in the TR-FRET value. Accordingly, in this Example, enzyme reactions are carried out in a kinase reaction buffer in the presence or absence of representative compounds of Formula (I) at various concentrations in 384-well plate at room temperature for 60 minutes. The kinase reaction buffer contains human recombinant LRRK2 protein (amino acids 970-2527, 5 nM), ATP (57 μM for LRRK2 wild-type, 134 μM for G2019S mutant protein), Fluorescein-LRRKtide substrate (0.4 mM), 50 mM Tris pH 7.5, 10 mM MgCl2, 1 mM EGTA, 0.01% Brij™-35, and 2 mM DTT. The final reaction volume for each reaction is 10 μL. The reactions are initated by adding the substrate and stopped by the addition of 10 μL of a TR-FRET dilution buffer supplemented with a kinase quench buffer (10 mM EDTA final) and Tb-anti-pLRRKtide (2 nM final). The plate is further incubated at room temperature for another 60 minutes, and the fluorescent signals are read on an EnVision® multilabel plate reader (PerkinElmer, Waltham, MA) with excitation at 340 nm and emission at 495 and 520 nm. The assay signal is determined as a ratio of FRET-specific signal measured with emission filter at 520 nm to that of the signal measured with Tb-specific emission filter at 495 nm. IC50 values for compound-mediated enzyme inhibition are calculated using appropriate programs in GraphPad Prism software by plotting the logarithm of the compound concentrations versus percent inhibition. All reagents are purchased from Thermo Fisher Scientific.

LRRK2 wild-type, sequence (Q5S007 970-2527): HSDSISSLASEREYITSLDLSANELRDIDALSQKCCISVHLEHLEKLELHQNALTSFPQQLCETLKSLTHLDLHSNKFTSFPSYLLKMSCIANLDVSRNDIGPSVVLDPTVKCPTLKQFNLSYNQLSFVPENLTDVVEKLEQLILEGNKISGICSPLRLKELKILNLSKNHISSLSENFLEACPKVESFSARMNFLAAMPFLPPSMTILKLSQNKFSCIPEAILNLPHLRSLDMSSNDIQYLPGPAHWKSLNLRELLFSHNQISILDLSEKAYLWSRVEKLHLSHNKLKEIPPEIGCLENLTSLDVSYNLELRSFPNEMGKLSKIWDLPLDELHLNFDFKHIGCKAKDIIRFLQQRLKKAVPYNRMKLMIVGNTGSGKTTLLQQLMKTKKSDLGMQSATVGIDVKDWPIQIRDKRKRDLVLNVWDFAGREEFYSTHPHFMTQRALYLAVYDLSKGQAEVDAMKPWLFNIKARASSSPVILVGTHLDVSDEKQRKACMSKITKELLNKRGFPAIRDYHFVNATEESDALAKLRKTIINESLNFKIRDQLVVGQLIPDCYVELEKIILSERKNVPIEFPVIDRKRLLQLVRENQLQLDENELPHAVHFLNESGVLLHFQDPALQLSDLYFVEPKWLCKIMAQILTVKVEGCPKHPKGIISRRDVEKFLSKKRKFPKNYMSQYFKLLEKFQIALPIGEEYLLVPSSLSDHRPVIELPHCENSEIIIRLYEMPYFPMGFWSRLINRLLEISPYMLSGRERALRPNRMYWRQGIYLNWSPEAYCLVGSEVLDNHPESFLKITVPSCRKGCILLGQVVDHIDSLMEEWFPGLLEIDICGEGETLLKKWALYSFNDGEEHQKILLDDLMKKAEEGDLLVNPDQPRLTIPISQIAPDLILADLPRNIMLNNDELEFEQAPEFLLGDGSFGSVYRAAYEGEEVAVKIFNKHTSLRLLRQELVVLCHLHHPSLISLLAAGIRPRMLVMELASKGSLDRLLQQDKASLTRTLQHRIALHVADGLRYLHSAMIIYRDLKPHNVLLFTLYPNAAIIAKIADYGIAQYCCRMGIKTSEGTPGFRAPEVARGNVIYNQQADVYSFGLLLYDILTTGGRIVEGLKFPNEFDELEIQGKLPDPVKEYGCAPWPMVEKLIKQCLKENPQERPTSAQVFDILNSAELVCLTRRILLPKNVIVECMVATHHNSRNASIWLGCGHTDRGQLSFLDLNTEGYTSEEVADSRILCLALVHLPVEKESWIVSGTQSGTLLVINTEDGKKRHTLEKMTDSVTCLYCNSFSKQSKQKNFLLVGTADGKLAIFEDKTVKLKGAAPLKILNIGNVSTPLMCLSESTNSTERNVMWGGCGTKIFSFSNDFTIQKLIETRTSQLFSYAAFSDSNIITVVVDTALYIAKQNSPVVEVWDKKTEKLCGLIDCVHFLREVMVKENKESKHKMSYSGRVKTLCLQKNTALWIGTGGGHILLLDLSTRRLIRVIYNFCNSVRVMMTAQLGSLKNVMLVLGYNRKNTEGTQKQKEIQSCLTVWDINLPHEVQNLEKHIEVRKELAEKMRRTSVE

SMILES	IC50 [nM]
N#CCC(=O)Nc1ccn2ncc(-c3cccc(C4CCCNC4)n3)c2c1 (stereo not drawn) [Example 77, 2-cyano-N-(3-(6-(piperidin-3-yl)pyridin-2-yl)pyrazolo[1,5-a]pyridin-5-yl)acetamide]	11 to 100
O=C(Cc1cccnc1)Nc1ccn2ncc(-c3cccc(C4CCCNC4)n3)c2c1 (stereo not drawn) [Example 78, N-(3-(6-(piperidin-3-yl)pyridin-2-yl)pyrazolo[1,5-a]pyridin-5-yl)-2-(pyridin-3-yl)acetamide]	11 to 100
O=C(CNc1cccnc1)Nc1ccn2ncc(-c3cccc(C4CCCNC4)n3)c2c1 (stereo not drawn) [Example 80, N-(3-(6-(piperidin-3-yl)pyridin-2-yl)pyrazolo[1,5-a]pyridin-5-yl)-2-(pyridin-3-ylamino)acetamide]	11 to 100
O=C(Cc1ccccn1)Nc1ccn2ncc(-c3cccc(C4CCCNC4)n3)c2c1 (stereo not drawn) [Example 81, N-(3-(6-(piperidin-3-yl)pyridin-2-yl)pyrazolo[1,5-a]pyridin-5-yl)-2-(pyridin-2-yl)acetamide]	11 to 100

Second part, the compound after the results:

IC50 [nM]	SMILES
11 to 100	O=C(COc1ccncc1)Nc1ccn2ncc(-c3cccc(C4CCCNC4)n3)c2c1 (stereo not drawn) [Example 76, N-(3-(6-(piperidin-3-yl)pyridin-2-yl)pyrazolo[1,5-a]pyridin-5-yl)-2-(pyridin-4-yloxy)acetamide]
11 to 100	O=C(CNc1ccncc1)Nc1ccn2ncc(-c3cccc(C4CCCNC4)n3)c2c1 (stereo not drawn) [Example 79, N-(3-(6-(piperidin-3-yl)pyridin-2-yl)pyrazolo[1,5-a]pyridin-5-yl)-2-(pyridin-4-ylamino)acetamide]
